In ChEMBL document CHEMBL1201862, “PubChem BioAssay data set” (2004):
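Cultured in 96-well plates, cells were exposed to test compound for 48 hours across five concentrations. Abbreviation: GI50, concentration required for 50% inhibition of growth.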 The source made the active and inactive calls. No stated cut-off is given here; in the data, active = GI50 up to about 1.1 µM and inactive = higher.

Columns and labels:
Test in all cases: NCI anticancer screen, dose series, 48 h
786-0 = system: 786-0
DU-145 = system: DU-145
HCC 2998 = system: HCC 2998
HOP-92 = system: HOP-92
HT-29 = system: HT-29
K562 = system: K562
MDA-MB-435 = system: MDA-MB-435
MDA-N = system: MDA-N
Malme-3M = system: Malme-3M
NCI-H23 = system: NCI-H23
NCI-H460 = system: NCI-H460
OVCAR-5 = system: OVCAR-5
OVCAR-8 = system: OVCAR-8
RPMI-8226 = system: RPMI-8226
SK-MEL-28 = system: SK-MEL-28
SK-MEL-2 = system: SK-MEL-2
SNB-19 = system: SNB-19
SW-620 = system: SW-620
TK-10 = system: TK-10
U-251 = system: U-251

Row | SMILES | GI50 (786-0) | GI50 (DU-145) | GI50 (HCC 2998) | GI50 (HOP-92) | GI50 (HT-29) | GI50 (K562) | GI50 (MDA-MB-435) | GI50 (MDA-N) | GI50 (Malme-3M) | GI50 (NCI-H23) | GI50 (NCI-H460) | GI50 (OVCAR-5) | GI50 (OVCAR-8) | GI50 (RPMI-8226) | GI50 (SK-MEL-28) | GI50 (SK-MEL-2) | GI50 (SNB-19) | GI50 (SW-620) | GI50 (TK-10) | GI50 (U-251)
1 | O=[N+]([O-])c1ccc(S(=O)(=O)Cc2ccccc2)c([N+](=O)[O-])c1 | 1.58 µM (inactive) | 3.63 µM (inactive) | 7.43 µM (inactive) | 1.79 µM (inactive) | 2.18 µM (inactive) | 1.13 µM (inactive) | 1.75 µM (inactive) | 1.96 µM (inactive) | 2.91 µM (inactive) | 1.9 µM (inactive) | 5.12 µM (inactive) | 9.55 µM (inactive) | 1.89 µM (inactive) | 1.4 µM (inactive) | 4.06 µM (inactive) | 2.82 µM (inactive) | 17.6 µM (inactive) | 1.51 µM (inactive) | 1.88 µM (inactive) | 2.23 µM (inactive)
2 | Oc1nc2nc3ccccc3nc2nc1O | > 100 µM (inactive) | > 100 µM (inactive) | > 100 µM (inactive) | > 100 µM (inactive) | > 100 µM (inactive) | > 100 µM (inactive) | > 100 µM (inactive) | > 100 µM (inactive) | > 100 µM (inactive) | > 100 µM (inactive) | > 100 µM (inactive) | > 100 µM (inactive) | > 100 µM (inactive) | > 100 µM (inactive) | > 100 µM (inactive) | > 100 µM (inactive) | > 100 µM (inactive) | > 100 µM (inactive) | > 100 µM (inactive) | > 100 µM (inactive)
3 | CCn1c(=O)c2nc(SC)sc2n(-c2ccc(C)cc2)c1=O | 0.401 µM (active) | > 100 µM (inactive) | > 100 µM (inactive) | > 100 µM (inactive) | > 100 µM (inactive) | > 100 µM (inactive) | 2.17 µM (inactive) | > 100 µM (inactive) | > 100 µM (inactive) | > 100 µM (inactive) | > 100 µM (inactive) | > 100 µM (inactive) | > 100 µM (inactive) | > 100 µM (inactive) | > 100 µM (inactive) | 66.4 µM (inactive) | > 100 µM (inactive) | > 100 µM (inactive) | > 100 µM (inactive) | > 100 µM (inactive)
4 | Cc1cc(-c2nc3ccccc3s2)ccc1N | 57.8 µM (inactive) | 46.6 µM (inactive) | 5.98 µM (inactive) | > 100 µM (inactive) | 40.3 µM (inactive) | 38.8 µM (inactive) | 56.9 µM (inactive) | 60.7 µM (inactive) | 64.3 µM (inactive) | 40.4 µM (inactive) | 27.2 µM (inactive) | 19.5 µM (inactive) | 61.5 µM (inactive) | 9.79 µM (inactive) | > 76.6 µM (inactive) | 56.4 µM (inactive) | > 70.1 µM (inactive) | > 72.4 µM (inactive) | 0.0302 µM (active) | 45 µM (inactive)
5 | CCCCCCCCCC[C@H](O)[C@H](O)CC[C@@H](O)[C@H]1CC[C@@H]([C@H]2CC[C@H](CCCCCCC[C@@H](O)CC3=C[C@H](C)OC3=O)O2)O1 | 6.3 µM (inactive) | 4.65 µM (inactive) | 18.8 µM (inactive) | 6.32 µM (inactive) | 2.2 µM (inactive) | 1.7 µM (inactive) | 1.31 µM (inactive) | 2.82 µM (inactive) | 15.3 µM (inactive) | 0.00746 µM (active) | 1.82 µM (inactive) | 6.28 µM (inactive) | 2.95 µM (inactive) | 0.82 µM (active) | 2.41 µM (inactive) | 1.72 µM (inactive) | 1.84 µM (inactive) | 2.56 µM (inactive) | 4.95 µM (inactive) | 41.5 µM (inactive)
6 | CC(/C=C/C(=O)NO)=C\C(C)C(=O)c1ccc(N(C)C)cc1 (stereo not given) | 0.0339 µM (active) | 0.0176 µM (active) | < 0.01 µM (active) | 0.0652 µM (active) | < 0.01 µM (active) | 0.0325 µM (active) | 0.0159 µM (active) | 0.0287 µM (active) | < 0.01 µM (active) | 0.0331 µM (active) | < 0.01 µM (active) | 0.114 µM (active) | < 0.01 µM (active) | < 0.01 µM (active) | 0.479 µM (active) | 0.217 µM (active) | 0.0281 µM (active) | < 0.01 µM (active) | < 0.0177 µM (active) | 0.0142 µM (active)
7 | NNC(=O)CC(=O)Nc1ccc(Cl)cc1 | > 100 µM (inactive) | > 100 µM (inactive) | > 100 µM (inactive) | > 100 µM (inactive) | > 100 µM (inactive) | 48.6 µM (inactive) | > 100 µM (inactive) | > 100 µM (inactive) | > 100 µM (inactive) | > 100 µM (inactive) | > 100 µM (inactive) | > 100 µM (inactive) | > 100 µM (inactive) | > 100 µM (inactive) | > 100 µM (inactive) | > 100 µM (inactive) | > 100 µM (inactive) | > 100 µM (inactive) | > 100 µM (inactive) | > 100 µM (inactive)
8 | CC(C)(C)n1c(=O)n2n(c1=O)C1c3cccc4cccc(c34)C2C2c3cccc4cccc(c34)C1n1c(=O)n(C(C)(C)C)c(=O)n12 | > 100 µM (inactive) | 80.2 µM (inactive) | 64.3 µM (inactive) | > 100 µM (inactive) | > 100 µM (inactive) | 87.5 µM (inactive) | > 100 µM (inactive) | > 100 µM (inactive) | > 100 µM (inactive) | 95.7 µM (inactive) | 64.7 µM (inactive) | > 100 µM (inactive) | 86.9 µM (inactive) | 55.8 µM (inactive) | > 100 µM (inactive) | 37.5 µM (inactive) | > 100 µM (inactive) | 90.4 µM (inactive) | 93.5 µM (inactive) | 43 µM (inactive)
